Where no end group is shown, it is not given here. [ ]: non-standard residue; d: D form. pY = N[C@@H](Cc1ccc(OP(=O)(O)O)cc1)C(=O)O
What was measured:
Fgfr4 [1] = target: T1, Fgfr4 (Mus musculus, UniProt Q03142); assay: Kinase inhibitor profiling, pEY phosphorylation; assay type: biochemical
T1 construct: specificity data for proteins generated from a library of eighteen full-length clones; biotin on random lysines (biotin-Lys-tRNA); host or cells: rabbit reticulocyte lysate, coupled transcription/translation (TnT, Promega)
Experimental: (§1) Proteins were produced in an in vitro transcription and translation reaction. […] The unbound components of the reaction containing endogenous kinases were removed by three washes with TT-buffer (25 mM Tris-HCl buffer pH 7.4 and 0.004% Triton), two five minutes washings with high-salt wash buffer (25 mM Tris-HCl buffer pH 7.4, 0.004% Triton, 1M NaCl and 5 mM DTT) and 3 more washes with TT-buffer. To these immobilized and purified proteins a tyrosine kinase substrate, 5 nM pEY (poly Glu-Tyr, Sigma, MO), was added in a 50 μl reaction solution containing 5 mM MgCl2, 5 mM MnCl2, 100 μM ATP, 25 mM Tris-HCl buffer pH 7.4, 0.05 mM Na3VO4, 0.004% TritonX-100, 2 mM DTT and EDTA-free protease inhibitor (Roche Molecular Biochemicals). This mixture was incubated with shaking at room temperature overnight to allow phosphorylation of the pEY substrate by the immobilized kinases. Following this incubation, 45 μl of this mixture was transferred to a streptavidin or avidin-coated NPT IPR plate coated with biotinylated anti-phosphotyrosine antibody (PY20, Zymed labs, CA) followed by incubation for 30 minutes at room temperature to allow the binding of the phosphorylated pEY substrate to the PY20 coated NPT plate. Following this binding step, 50 ng Sulfo-TAG labeled anti-phosphotyrosine in buffer containing 25 mM Tris-HCl buffer pH 7.4, 5 mM MgCl2, 0.05 mM Na3VO4, 0.004% TritonX-100, 2 mM DTT and 0.05% IgG was added followed by incubation at room temperature for 30 mm. The unbound reagents were removed by one time washing with water, and the TAG label was detected in presence of 150 μl IPR assay buffer (0.4 mM Gly-Gly buffer, pH 7.8, 1 mM EDTA, 0.1 M TPA). The ECL signals were measured using an imaging plate reader.
(§2) Proteins were produced using 100 ng of plasmid DNA Mock (Luciferase, Promega) or tyrosine kinases (Fert2 IMAGE ID # 4485050, FGFR1 IMAGE ID # 4037899, Fgfr2 IMAGE ID # 2654352, Src IMAGE ID # 3156400, BMX IMAGE ID # 3919253, LCK IMAGE ID # 4191610, Epha7 IMAGE ID # 3991628, Ephb4 IMAGE ID # 4013934, Tek IMAGE ID # 3482498, HCK IMAGE ID # 4778819, BTK IMAGE ID # 4478463, CSK IMAGE ID # 4398416, SYK IMAGE ID # 3870426, FGR IMAGE ID # 4419973, PTK2B IMAGE ID # 4339456, FRK(IMAGE ID # 4515877, Kit IMAGE ID # 2644960, Fgfr-4 IMAGE ID # 4239139, NTRK3 IMAGE ID # 4181574, Kdr IMAGE ID # 4238984, Incyte Genomics, CA) and immobilized on SA or avidin coated NPT-IPR plates as described in previous examples. The unbound components of the translation reaction (including any endogenous kinases) were removed by 3 washes with TT-buffer (25 mM Tris-HCl buffer pH 7.4 and 0.004% Triton), two five minutes washes with high-salt wash buffer (25 mM Tris-HCl buffer pH 7.4, 0.004% Triton, 1M NaCl and 5 mM DTT) and 3 washes with TT-buffer. […] The mixture was incubated at room temperature for 10 mm before starting the kinase reaction by adding 25 μl of 200 μM ATP in buffer A. This mixture was incubated with intermittent shaking at room temperature for 2 hours to overnight to allow (a) phosphorylation of the pEY substrate and (b) autophosphorylation of the immobilized kinases. Autophosphorylation and phosphorylation of the pEY was measured as described in Examples 7 and 8.
(§3) The ECL signal in control wells produced by tyrosine kinases was compared to the wells containing inhibitor compounds. The signal produced from Mock was negligible.

HCK = target: T2, HCK (Homo sapiens, UniProt P08631); assay: Kinase inhibitor profiling, pEY phosphorylation; assay type: biochemical
T2 construct: specificity data for proteins generated from a library of eighteen full-length clones; host or cells: rabbit reticulocyte lysate, TnT coupled in vitro transcription/translation (cell-free)
Experimental: as §1, §2, §3

Kit [2] = target: T3, Kit (Mus musculus, UniProt P05532); assay: Kinase inhibitor profiling, pEY phosphorylation; assay type: biochemical
T3 construct: specificity data for proteins generated from a library of eighteen full-length clones; biotin on random lysines (biotin-Lys-tRNA); host or cells: rabbit reticulocyte lysate, coupled transcription/translation (TnT, Promega)
Experimental: as §1, §2, §3

CSK = target: T4, CSK (Homo sapiens, UniProt P41240); assay: Kinase inhibitor profiling, pEY phosphorylation; assay type: biochemical
T4 construct: specificity data for proteins generated from a library of eighteen full-length clones; host or cells: rabbit reticulocyte lysate, TnT coupled in vitro transcription/translation (cell-free)
Experimental: as §1, §2, §3

SYK [3] = target: T5, SYK (Homo sapiens, UniProt P43405); assay: Kinase inhibitor profiling, pEY phosphorylation; assay type: biochemical
T5 construct: autophosphorylation activity from full-length clones Spleen Tyrosine Kinase (SYK) and Eph receptor-A7 (EphA7); host or cells: rabbit reticulocyte lysate, TnT coupled in vitro transcription/translation (cell-free)
Experimental: as §1, §2, §3

PTK2B [4] = target: T6, PTK2B (Homo sapiens, UniProt Q14289); assay: Kinase inhibitor profiling, pEY phosphorylation; assay type: biochemical
T6 construct: specificity data for proteins generated from a library of eighteen full-length clones; host or cells: rabbit reticulocyte lysate, TnT coupled in vitro transcription/translation (cell-free)
Experimental: as §1, §2, §3

Fgfr4 [5] = target: T1, Fgfr4; assay: Kinase inhibitor profiling, autophosphorylation; assay type: biochemical
Experimental: (§4) Proteins were produced from DNA plasmids of Mock Luciferase, Promega, tyrosine kinase clone Spleen Tyrosine kinase (SYK, IMAGE ID# 3870426) and Eph receptor-A7 (EphA7, IMAGE ID# 3991628) (Incyte Genomics, CA) and immobilized on streptavidin or avidin coated NPT-IPR plates as described in the Example 7. To promote autophosphorylation in these immobilized and purified proteins, Mn++ ions were added in a 50 μl reaction containing 5 mM MgCl2, 5 mM MnCl2, 100 μM ATP, 25 mM Tris-HCl buffer pH 7.4, 0.05 mM Na3VO4, 0.004% TritonX-100, 2 mM DTT and EDTA-free protease inhibitor (Roche Molecular Biochemicals). This mixture was incubated with shaking at room temperature overnight to allow autophosphorylation. Following this incubation, wells were washed 2 times with TT-buffer and 2 times with water. Following this step, 50 ng Sulfo-TAG labeled anti-phosphotyrosine in buffer containing 25 mM Tris-HCl buffer pH 7.4, 5 mM MgCl2, 0.05 mM Na3VO4, 0.004% TritonX-100, 2 mM DTT and 0.05% IgG in a final volume of 50 μl was added followed by incubation at room temperature for 45 min. The unbound reagents were removed by one time washing with water, and the TAG label was detected in presence of 150 μl IPR assay buffer (0.4 mM Gly—Gly buffer, pH 7.8, 1 mM EDTA, 0.1 M TPA). The ECL signals were measured using an imaging plate reader.
as §2, §3

Kit [6] = target: T3, Kit; assay: Kinase inhibitor profiling, autophosphorylation; assay type: biochemical
Experimental: as §4, §2, §3

SYK [7] = target: T5, SYK; assay: Kinase inhibitor profiling, autophosphorylation; assay type: biochemical
Experimental: as §4, §2, §3

PTK2B [8] = target: T6, PTK2B; assay: Kinase inhibitor profiling, autophosphorylation; assay type: biochemical
Experimental: as §4, §2, §3

EGFR = target: T7, EGFR (Homo sapiens, UniProt P00533); assay: EGFR binding assay, bound EGFR detected by its tyrosine kinase activity towards pEY; conditions: Grb2 plasmid, +EGFR, in presence of the peptide
T7 construct: autophosphorylated tyrosines (self-phosphorylated with ATP before use); purchased Sigma Chemical Co, MO
Experimental: Proteins were produced in an in vitro transcription and translation reaction using 40–100 ng of plasmid DNA. […] The unbound components of the reaction containing endogenous kinases were removed by three washes with TT-buffer (25 mM Tris-HCl buffer pH 7.4 and 0.004% Triton), two five minutes washings with high-salt wash buffer (25 mM Tris-HCl buffer pH 7.4, 0.004% Triton, 1M NaCl and 5 mM DTT) and 3 more washes with TT-buffer. […] The unbound EGFR was washed by 4 times washing with TT-buffer (25 mM Tris-HCl buffer pH 7.4 and 0.004% Triton). The amount of EGFR bound to the reticulocyte lysate expressed protein was determined by detecting the kinase activity of EGFR. A tyrosine kinase substrate, 5 nM pEY (poly Glu-Tyr, Sigma, MO) was added in a 50 μl reaction containing 5 mM MgCl2, 5 mM MnCl2, 100 μM ATP, 25 mM Tris-HCl buffer pH 7.4, 0.05 mM Na3VO4, 0.004% TritonX-100, 2 mM DTT and EDTA-free protease inhibitor (Roche Molecular Biochemicals). This mixture was incubated with shaking at room temperature for 1 or 12 hours to allow phosphorylation of the pEY substrate by the EGFR. […]
The unbound reagents were removed by one time washing with TT-buffer (25 mM Tris-HCl buffer pH 7.4 and 0.004% Triton), and the TAG label was detected in presence of 150 μl IPR assay buffer (0.4 mM Gly-Gly buffer, pH 7.8, 1 mM EDTA, 0.1 M TPA). The ECL signals were measured using an imaging plate reader.

[9] = test system: tyrosine kinases reported to be the target of each inhibitor; conditions: read-out: reported IC50 concentration (1× concentration); for the kinase reported to be the target of the inhibitor; cited from earlier work
FRK = assay: Kinase inhibitor profiling, autophosphorylation; assay type: biochemical
Experimental: as §4, §2, §3

[10] = test system: autophosphorylation (phosphotyrosine); assay: Autophosphorylation activity assay of immobilized in vitro translated protein; assay type: biochemical; conditions: 0.5 μl of TnT reaction
Experimental: as §4

[11] = test system: autophosphorylation (phosphotyrosine); assay: In vitro kinase library screen: autophosphorylation; assay type: biochemical
Experimental: as §4
(§5) Proteins were produced in an in vitro transcription and translation reaction as described in the Materials and Methods. […] The reaction was stopped by mixing with BB2 buffer. Biotinylated proteins from 50 μl of the mixture (representing 0.5 μl to 5 μl of TnT reaction) were immobilized onto streptavidin or avidin coated NPT-IPR plates by shaking at room temperature for 45 min. The activity of the immobilized protein towards pEY or autophosphorylation was further assayed by the methods described in examples 7 and 8.

pEY = assay: In vitro kinase library screen: activity towards pEY; assay type: biochemical; conditions: 5 ul of expressed protein
Experimental: as §1, §5

T3 sequence (P05532 25-979): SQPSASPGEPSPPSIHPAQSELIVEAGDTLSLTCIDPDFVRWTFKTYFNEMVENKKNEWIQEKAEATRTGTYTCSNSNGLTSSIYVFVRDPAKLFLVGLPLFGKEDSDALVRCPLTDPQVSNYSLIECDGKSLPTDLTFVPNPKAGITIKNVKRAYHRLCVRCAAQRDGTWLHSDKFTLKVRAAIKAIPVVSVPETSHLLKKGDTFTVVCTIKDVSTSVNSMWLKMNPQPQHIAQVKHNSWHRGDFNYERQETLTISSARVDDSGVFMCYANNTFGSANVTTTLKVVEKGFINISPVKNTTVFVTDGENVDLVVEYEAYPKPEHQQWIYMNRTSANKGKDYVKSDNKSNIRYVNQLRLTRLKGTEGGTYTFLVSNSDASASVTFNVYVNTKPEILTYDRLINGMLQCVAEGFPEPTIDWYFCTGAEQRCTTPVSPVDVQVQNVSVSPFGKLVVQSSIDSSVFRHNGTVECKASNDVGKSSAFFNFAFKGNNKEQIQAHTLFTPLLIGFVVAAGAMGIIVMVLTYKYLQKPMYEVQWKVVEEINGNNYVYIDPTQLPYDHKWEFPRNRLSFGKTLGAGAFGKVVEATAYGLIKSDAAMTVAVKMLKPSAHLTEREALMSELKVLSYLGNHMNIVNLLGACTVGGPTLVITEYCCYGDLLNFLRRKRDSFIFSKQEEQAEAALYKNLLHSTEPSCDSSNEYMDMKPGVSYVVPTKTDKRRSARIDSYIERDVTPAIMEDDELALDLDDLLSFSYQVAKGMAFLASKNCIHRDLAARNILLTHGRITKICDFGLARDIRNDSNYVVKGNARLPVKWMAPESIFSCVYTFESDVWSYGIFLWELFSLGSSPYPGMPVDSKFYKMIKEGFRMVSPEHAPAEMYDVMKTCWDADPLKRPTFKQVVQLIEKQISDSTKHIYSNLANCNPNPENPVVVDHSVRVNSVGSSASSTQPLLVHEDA
T1 sequence (Q03142 17-799): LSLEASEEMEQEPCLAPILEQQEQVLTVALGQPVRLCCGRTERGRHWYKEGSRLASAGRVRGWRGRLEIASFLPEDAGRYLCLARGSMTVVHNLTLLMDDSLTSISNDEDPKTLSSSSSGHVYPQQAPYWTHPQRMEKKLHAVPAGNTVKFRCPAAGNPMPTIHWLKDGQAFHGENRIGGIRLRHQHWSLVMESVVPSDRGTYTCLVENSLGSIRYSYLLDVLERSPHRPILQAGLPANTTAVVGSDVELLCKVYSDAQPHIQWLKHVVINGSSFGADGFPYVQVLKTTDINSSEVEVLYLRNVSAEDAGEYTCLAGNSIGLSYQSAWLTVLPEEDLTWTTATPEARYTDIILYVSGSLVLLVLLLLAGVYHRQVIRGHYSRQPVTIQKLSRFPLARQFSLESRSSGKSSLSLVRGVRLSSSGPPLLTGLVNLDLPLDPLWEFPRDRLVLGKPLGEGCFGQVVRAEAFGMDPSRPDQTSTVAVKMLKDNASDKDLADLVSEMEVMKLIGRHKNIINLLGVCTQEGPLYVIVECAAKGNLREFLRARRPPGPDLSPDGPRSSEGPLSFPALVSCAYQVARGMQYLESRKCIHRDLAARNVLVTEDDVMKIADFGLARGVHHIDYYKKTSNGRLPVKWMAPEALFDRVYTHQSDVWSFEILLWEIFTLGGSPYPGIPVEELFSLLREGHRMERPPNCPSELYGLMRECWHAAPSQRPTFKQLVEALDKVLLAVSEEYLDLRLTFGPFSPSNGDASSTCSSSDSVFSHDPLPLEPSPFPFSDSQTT
T6 sequence (Q14289 whole entry): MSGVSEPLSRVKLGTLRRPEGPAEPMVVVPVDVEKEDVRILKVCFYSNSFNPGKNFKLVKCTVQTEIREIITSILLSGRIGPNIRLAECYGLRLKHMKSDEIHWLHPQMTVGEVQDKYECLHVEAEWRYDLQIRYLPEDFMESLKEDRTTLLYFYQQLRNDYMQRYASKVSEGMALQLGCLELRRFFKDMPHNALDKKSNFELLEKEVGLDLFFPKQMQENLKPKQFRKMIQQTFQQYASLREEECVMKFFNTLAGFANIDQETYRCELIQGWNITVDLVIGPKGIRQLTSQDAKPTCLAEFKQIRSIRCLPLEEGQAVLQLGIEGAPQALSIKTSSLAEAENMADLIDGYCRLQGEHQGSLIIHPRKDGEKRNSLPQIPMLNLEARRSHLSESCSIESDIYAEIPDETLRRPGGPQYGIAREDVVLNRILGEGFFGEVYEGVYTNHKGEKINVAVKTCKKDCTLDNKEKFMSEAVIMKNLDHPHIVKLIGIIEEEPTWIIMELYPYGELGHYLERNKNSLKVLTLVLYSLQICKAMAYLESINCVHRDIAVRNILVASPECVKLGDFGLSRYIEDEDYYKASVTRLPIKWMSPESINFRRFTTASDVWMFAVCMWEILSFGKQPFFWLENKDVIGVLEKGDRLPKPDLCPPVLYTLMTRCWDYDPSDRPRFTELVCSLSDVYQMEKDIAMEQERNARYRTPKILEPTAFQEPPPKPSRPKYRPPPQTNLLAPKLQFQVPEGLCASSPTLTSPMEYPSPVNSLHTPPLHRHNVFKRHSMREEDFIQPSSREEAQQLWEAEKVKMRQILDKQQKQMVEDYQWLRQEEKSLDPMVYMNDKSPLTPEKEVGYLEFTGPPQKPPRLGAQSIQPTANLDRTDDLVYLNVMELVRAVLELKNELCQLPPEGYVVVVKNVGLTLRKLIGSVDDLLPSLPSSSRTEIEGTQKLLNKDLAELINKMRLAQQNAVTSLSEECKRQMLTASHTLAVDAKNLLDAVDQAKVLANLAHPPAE
T2 sequence (P08631 whole entry): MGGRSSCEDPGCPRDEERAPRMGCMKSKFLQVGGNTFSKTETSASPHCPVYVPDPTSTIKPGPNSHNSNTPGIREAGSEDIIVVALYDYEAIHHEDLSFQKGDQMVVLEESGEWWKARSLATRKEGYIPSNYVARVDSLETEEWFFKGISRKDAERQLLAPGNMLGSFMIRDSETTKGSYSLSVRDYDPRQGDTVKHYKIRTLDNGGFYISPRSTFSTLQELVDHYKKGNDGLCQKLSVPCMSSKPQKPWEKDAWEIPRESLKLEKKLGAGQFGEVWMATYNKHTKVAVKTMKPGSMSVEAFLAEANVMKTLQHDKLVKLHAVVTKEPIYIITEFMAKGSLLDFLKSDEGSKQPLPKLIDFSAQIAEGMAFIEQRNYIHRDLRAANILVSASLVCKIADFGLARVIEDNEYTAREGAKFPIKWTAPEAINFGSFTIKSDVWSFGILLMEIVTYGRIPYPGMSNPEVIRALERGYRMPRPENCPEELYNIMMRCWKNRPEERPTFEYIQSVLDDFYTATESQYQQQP
T4 sequence (P41240 whole entry): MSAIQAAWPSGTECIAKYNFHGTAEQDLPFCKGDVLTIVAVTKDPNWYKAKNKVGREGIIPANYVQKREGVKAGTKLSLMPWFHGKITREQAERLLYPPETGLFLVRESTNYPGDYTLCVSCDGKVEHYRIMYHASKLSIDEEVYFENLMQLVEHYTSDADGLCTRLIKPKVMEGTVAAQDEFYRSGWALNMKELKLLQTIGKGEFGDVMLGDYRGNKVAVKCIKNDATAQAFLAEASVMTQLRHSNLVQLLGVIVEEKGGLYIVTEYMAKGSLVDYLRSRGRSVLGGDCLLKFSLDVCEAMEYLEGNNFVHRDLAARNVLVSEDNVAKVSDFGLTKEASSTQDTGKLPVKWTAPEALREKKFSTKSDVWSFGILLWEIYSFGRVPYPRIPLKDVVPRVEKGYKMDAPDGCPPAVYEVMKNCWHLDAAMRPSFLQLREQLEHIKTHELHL

**Q.** Which “Inhibition specificity towards pEY phosphorylation at 10X IC50, Fgfr4” value (Fgfr4 [1]) does the source give for `O=C1Nc2ccccc2/C1=C/c1ccc[nH]1` [Oxindole 1] here?
**A.** Its value is “M (medium inhibition (“M”=between 25 to 50% of the activity remaining))”.

**Q.** And the “Inhibition specificity towards pEY phosphorylation at 10X IC50, HCK” value (HCK)?
**A.** The value was “L (low inhibition (“L”=between 50–75% of the activity remaining))”.

**Q.** What about the “Inhibition specificity towards pEY phosphorylation at 10X IC50, Kit” value (Kit [2]) of the same compound?
**A.** Its value is “H (high inhibition (“H”=less than 25% of the activity remaining))”.

**Q.** What about the “Inhibition specificity towards pEY phosphorylation at 10X IC50, CSK” value (CSK) of the same compound?
**A.** The value was “M (medium inhibition (“M”=between 25 to 50% of the activity remaining))”.

**Q.** What about the “Inhibition specificity towards pEY phosphorylation at 10X IC50, SYK” value (SYK [3]) of the same compound?
**A.** Its value is “L (low inhibition (“L”=between 50–75% of the activity remaining))”.

**Q.** And the “Inhibition specificity towards pEY phosphorylation at 10X IC50, PTK2B” value (PTK2B [4])?
**A.** Its value is “M (medium inhibition (“M”=between 25 to 50% of the activity remaining))”.

**Q.** And the “Inhibition specificity towards Autophosphorylation at 10X IC50, Fgfr4” value (Fgfr4 [5])?
**A.** Its value is “L (low inhibition (“L”=between 50–75% of the activity remaining))”.

**Q.** What about the “Inhibition specificity towards Autophosphorylation at 10X IC50, Kit” value (Kit [6]) of the same compound?
**A.** Its value is “M (medium inhibition (“M”=between 25 to 50% of the activity remaining))”.

**Q.** What about the “Inhibition specificity towards Autophosphorylation at 10X IC50, SYK” value (SYK [7]) of the same compound?
**A.** Its value is “L (low inhibition (“L”=between 50–75% of the activity remaining))”.

**Q.** What about the “Inhibition specificity towards Autophosphorylation at 10X IC50, PTK2B” value (PTK2B [8]) of the same compound?
**A.** The value was “L (low inhibition (“L”=between 50–75% of the activity remaining))”.

**Q.** Which ECL signal (EGFR) does the source give for “Peptide: un-phosphorylated form of the EGFR 1063–1081 peptide (SEQ ID NO: 8) (LPVPEYINQSVPKRPAGSVC; Synthetic Fragment of EGFR-Y1068)” here?
**A.** Its ECL signal is 34,055.

**Q.** What does the source list for `CC(C)(C)n1nc(-c2ccc(Cl)cc2)c2c(N)ncnc21` [PP2]?
**A.** IC50 [9]: 4 nM; Inhibition specificity towards pEY phosphorylation at 10X IC50, Kit (Kit [2]): L (low inhibition (“L”=between 50–75% of the activity remaining)); Inhibition specificity towards Autophosphorylation at 10X IC50, FRK (FRK): L (low inhibition (“L”=between 50–75% of the activity remaining))

**Q.** Which results are given for “3991628: IMAGE clone protein: EPHA7, Eph receptor A7 [compound 3991628]”?
**A.** ECL signal [10]: 39,967; fold higher ECL signal than background produced by Mock (Luciferase) [10]: ~47 fold; ECL signal [11]: 115,662; HTS signal (pEY): 24,930

**Q.** Which ECL signal (EGFR) does the source give for “LPVPE(p)YINQSVPKRPAGSVC (LPVPE[pY]INQSVPKRPAGSVC) [Phosphopeptide]” here?
**A.** Its ECL signal is 7,348.

— US7063946B2, “Methods, reagents, kits and apparatus for protein function analysis” (Meso Scale Technologies, LLC., priority 2001, dated 2006)
